In BindingDB's records for doi:10.1021/jm00102a020 (Merck Research Laboratories, 1993):

These compounds were tested against Integrin alpha-IIb/beta-3 (Homo sapiens, UniProt P08514+P05106) (assay: ChEBML_90196).
Excerpt: In vitro inhibition of ADP-mediated human gel filtered platelet aggregation.

Integrin alpha-IIb/beta-3, sequence (P05106 27-788 limits assumed): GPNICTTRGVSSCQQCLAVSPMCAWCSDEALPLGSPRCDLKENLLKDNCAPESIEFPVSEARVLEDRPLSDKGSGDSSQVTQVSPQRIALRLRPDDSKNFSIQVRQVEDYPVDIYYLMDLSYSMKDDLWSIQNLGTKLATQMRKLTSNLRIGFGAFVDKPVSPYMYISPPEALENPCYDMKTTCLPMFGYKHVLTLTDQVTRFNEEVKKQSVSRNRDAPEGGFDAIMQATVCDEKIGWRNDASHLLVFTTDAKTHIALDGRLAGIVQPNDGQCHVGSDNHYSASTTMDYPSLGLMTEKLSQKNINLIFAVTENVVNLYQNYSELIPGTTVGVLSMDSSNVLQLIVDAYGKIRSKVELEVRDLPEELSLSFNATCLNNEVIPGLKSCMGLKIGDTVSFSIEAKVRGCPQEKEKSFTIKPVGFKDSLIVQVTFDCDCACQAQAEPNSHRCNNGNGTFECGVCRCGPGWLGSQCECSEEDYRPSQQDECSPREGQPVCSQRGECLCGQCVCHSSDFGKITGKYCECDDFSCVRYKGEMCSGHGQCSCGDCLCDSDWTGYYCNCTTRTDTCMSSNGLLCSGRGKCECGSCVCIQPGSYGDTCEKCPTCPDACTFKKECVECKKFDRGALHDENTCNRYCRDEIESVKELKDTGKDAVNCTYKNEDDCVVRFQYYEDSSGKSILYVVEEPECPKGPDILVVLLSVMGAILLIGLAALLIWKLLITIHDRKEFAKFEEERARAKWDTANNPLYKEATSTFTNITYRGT
Integrin alpha-IIb/beta-3, sequence (P08514 32-887 limits assumed): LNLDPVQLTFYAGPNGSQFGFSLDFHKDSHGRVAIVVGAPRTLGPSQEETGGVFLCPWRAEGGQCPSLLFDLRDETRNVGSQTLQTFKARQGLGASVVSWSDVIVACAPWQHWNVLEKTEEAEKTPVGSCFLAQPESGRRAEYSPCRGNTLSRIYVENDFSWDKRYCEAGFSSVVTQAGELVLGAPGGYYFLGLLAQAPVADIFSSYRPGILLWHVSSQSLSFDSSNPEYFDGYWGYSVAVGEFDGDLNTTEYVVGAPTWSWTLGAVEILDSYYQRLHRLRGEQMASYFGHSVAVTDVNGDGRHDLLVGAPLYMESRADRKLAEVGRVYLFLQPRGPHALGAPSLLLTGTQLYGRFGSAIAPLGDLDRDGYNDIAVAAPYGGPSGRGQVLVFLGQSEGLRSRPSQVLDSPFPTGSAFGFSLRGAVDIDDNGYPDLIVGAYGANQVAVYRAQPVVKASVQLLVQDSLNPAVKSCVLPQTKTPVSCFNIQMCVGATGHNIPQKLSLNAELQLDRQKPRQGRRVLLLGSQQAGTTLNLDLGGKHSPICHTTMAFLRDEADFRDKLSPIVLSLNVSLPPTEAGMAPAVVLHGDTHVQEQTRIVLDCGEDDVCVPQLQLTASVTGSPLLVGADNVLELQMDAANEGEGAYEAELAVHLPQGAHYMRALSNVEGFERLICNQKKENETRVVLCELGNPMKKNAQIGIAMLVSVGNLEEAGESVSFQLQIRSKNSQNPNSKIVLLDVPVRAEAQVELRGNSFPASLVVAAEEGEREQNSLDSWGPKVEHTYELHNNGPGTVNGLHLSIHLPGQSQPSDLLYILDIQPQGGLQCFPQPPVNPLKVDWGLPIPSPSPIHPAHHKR
Integrin alpha-IIb/beta-3, sequence (P08514 891-1039 limits assumed): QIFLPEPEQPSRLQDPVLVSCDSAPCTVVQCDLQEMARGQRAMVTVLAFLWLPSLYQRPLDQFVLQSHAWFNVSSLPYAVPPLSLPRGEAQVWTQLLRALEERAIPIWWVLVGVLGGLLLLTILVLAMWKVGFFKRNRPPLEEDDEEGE

Row | SMILES | IC50
1 | NCCCCCCOc1ccc(C[C@H](NS(=O)(=O)Cc2ccccc2)C(=O)O)cc1 | 2 µM
2 | CC(C)(C)NCC(O)COc1ccc(C[C@H](NC(=O)OCc2ccccc2)C(=O)O)cc1 (some centres not stated) | 27 µM
3 | CC(C)(C)NCCCOc1ccc(C[C@H](NC(=O)OCc2ccccc2)C(=O)O)cc1 [(S)-2-Benzyloxycarbonylamino-3-[4-(3-tert-butylamino-propoxy)-phenyl]-propionic acid] | 22 µM
4 | NCCCCCCCCOc1ccc(C[C@H](NC(=O)OCc2ccccc2)C(=O)O)cc1 [3-[4-(8-Amino-octyloxy)-phenyl]-2-benzyloxycarbonylamino-propionic acid] | 40 µM
5 | NCCCCCCOc1ccc(CCC(=O)O)cc1 | > 100 µM
6 | O=C(N[C@@H](Cc1ccc(OCCCc2ccccc2)cc1)C(=O)O)OCc1ccccc1 | > 1000 µM
7 | CCCCCC(=O)N[C@@H](Cc1ccc(OCCCCCCN)cc1)C(=O)O | 3.8 µM
